We go through 3 compounds from paper PMC6332093, “Development of Radiolabeled Membrane Type-1 Matrix Metalloproteinase Activatable Cell Penetrating Peptide Imaging Probes” (Molecules, 2015).

Read-outs that look alike come from different tables or passages of the source. Square brackets hold non-standard residues; d marks the D form. Peptide text beside a SMILES is read from it. * marks the point of attachment. DOTA = O=C(O)CN1CCN(CC(=O)O)CCN(CC(=O)*)CCN(CC(=O)O)CC1; AEA = NCCOCC(=O)O

The nature of data set [1]: Biodistribution in mouse model of myocardial infarction. Type of data set: in vivo. Conditions: iv, total radioactivity, 5 h post-injection; for tissue uptake at 5 h: 10 nmol i.v., mean ± SD. As to the method:
An in vivo pilot study was performed to assess the in vivo biodistribution of ACPP-B and CPP-B, 5 h post-injection, in a mouse model of myocardial infarction (MI). The conditions were similar to the earlier study with the MMP-2/9 sensitive probe ^177Lu/^125I-ACPP-2/9 [1] to facilitate comparison. We aimed to characterize the in vivo biodistribution of ACPP-B using a dual-isotope approach with ^177Lu, labeled to the polycationic domain, and ^125I, labeled to the polyanionic domain, as orthogonal radiolabels (see Supplemental Information for performed iodination procedures). […] Unfortunately, a >95% radiochemical purity could not be achieved by solid phase extraction (Figure S5), and desalting strategies to remove ^125I could not be applied due to the low molecular weight of the peptide. Therefore, re-design of the ACPP-B peptide structure, to prevent side-reactions during iodination, may enable dual-isotope studies. Hereto, the cysteine residue can be acetylated, but oxidation of the sulfur atom may still occur. Furthermore, this conversion results in a more hydrophobic residue that may impact the MT1-MMP sensitivity of the probe. Substitution of the cysteine by a serine residue will possibly be a more attractive option. Alternatively, iodine may be introduced specifically to the N-terminus via coupling of a ^125I-SHPP moiety (following a similar approach as proposed for iodination of ACPP-C (Figure 1)).
(§1) Here, a single isotope labeled probe ^177Lu-ACPP-B was employed in a pilot in vivo study.
MI was induced by permanent ligation of the left anterior descending coronary artery (LAD) using published procedures. In short, animals were subcutaneously injected with buprenorphine (0.1 mg/kg) and 30 min later anesthetized with isoflurane. Animals were intubated and ventilated with 100% oxygen with a rodent respirator. After left thoracotomy between ribs four and five, the LAD was ligated with a 6–0 prolene suture. The chest and skin were closed with 5–0 silk sutures. The animal’s temperature was continuously measured rectally and maintained at 36.5–37.5 °C during surgery. After surgery, animals were allowed to recover at 30 °C overnight.
(§2) Biodistribution experiments were performed on MI-mice (n = 5 per probe) by i.v.-injection of ^177Lu-ACPP-B (10 nmol/100 µL, ca. 4.0 MBq ^177Lu), or ^177Lu-CPP-B (10 nmol/100 µL, ca. 4.0 MBq ^177Lu). For animals injected with ^177Lu-ACPP-B, blood samples were withdrawn from the vena saphena at selected time points (3, 9, 27, and 81 min), weighed, and diluted to 1 mL with MilliQ water. The mice were anesthetized with isoflurane 5 h after i.v.-injection, subjected to 2% (w/v) Evans Blue i.v.-injection (50 mg/kg) and sacrificed 2 min later by cervical dislocation. Organs and tissues of interest were harvested and weighed. The hearts were cooled to 4 °C, cut in 1 mm slices from apex to base. Infarct, border, and remote areas were isolated based on Evans Blue staining. The ^177Lu radioactivity of all samples was measured in a γ-counter (Wizard 1480; PerkinElmer) along with standards to determine the injected dose per gram (%ID/g). The energy window was set to 155–380 keV. The average probe concentration at time 0 (C0) was calculated by fitting the blood clearance data to the 2-phase exponential decay function Y = span1 × exp(−K1 × X) + span2 × exp(−K2 × X) + Plateau using GraphPad Prism. The area under the curve (AUC) was determined and the blood half-life, the time point at which the AUC reaches 50% of the total AUC, was subsequently derived using MatLab. The average volume of distribution was calculated using the formula VD = dose/(mean body weight × C0) [L/kg].

The next data set can be described thus: in vivo. The conditions noted are these: mouse; for tissue uptake: 10 nmol, total radioactivity. As to the method: as §1
Figure 6 Blood kinetics of ^177Lu-ACPP-B in MI-mice (n = 3). The data are mean %ID/g ± SD and fitted to the 2-phase exponential decay function Y = span1 × exp(−K1 × X) + span2 × exp(−K2 × X) + Plateau. Span1 = 2.61%ID/g, K1 = 1.99 min^−1, Span2 = 7.35%ID/g, K2 = 27.1 min^−1.
as §2

Where [2] appears, read: blood, MI-mice 10 days after MI, γ-counting, n = 5, read-out: Biodistribution, Blood.
The mark [3] stands for this setting: brain, MI-mice, n = 5, read-out: Biodistribution, Brain.
Where [4] appears, read: fat, MI-mice, n = 5, read-out: Biodistribution, Fat.
The mark [5] stands for this setting: heart, infarct area, MI-mice, n = 5, read-out: Biodistribution, Heart, infarct.
Setting [6] is: heart, remote myocardium, MI-mice, n = 5, read-out: Biodistribution, Heart, remote.
Where [7] appears, read: kidney, MI-mice, n = 5, read-out: Biodistribution, Kidney.
The mark [8] stands for this setting: liver, MI-mice, n = 5, read-out: Biodistribution, Liver.
[9] abbreviates: lung, MI-mice, n = 5, read-out: Biodistribution, Lung.
[10] abbreviates: muscle, MI-mice, n = 5, read-out: Biodistribution, Muscle.
Where [11] appears, read: spleen, MI-mice, n = 5, read-out: Biodistribution, Spleen.
The mark [12] stands for this setting: thigh bone, MI-mice, n = 5, read-out: Biodistribution, Thigh bone.

As to `CC(=O)N[C@H](Cc1ccc(O)cc1)C(=O)N[C@H](CCC(=O)O)C(=O)N[C@H](CCC(=O)O)C(=O)N[C@H](CCC(=O)O)C(=O)N[C@H](CCC(=O)O)C(=O)N[C@H](CCC(=O)O)C(=O)N[C@H](CCC(=O)O)C(=O)N[C@H](CCC(=O)O)C(=O)N[C@H](CCC(=O)O)C(=O)N[C@H](CCC(=O)O)C(=O)NCCOCC(=O)N[C@@H](CS)C(=O)N[C@@H](CCCNC(=N)N)C(=O)N1CCC[C@H]1C(=O)N[C@@H](C)C(=O)N[C@@H](Cc1c[nH]cn1)C(=O)N[C@@H](CC(C)C)C(=O)N[C@@H](CCCNC(=N)N)C(=O)N[C@@H](CC(=O)O)C(=O)N[C@@H](CO)C(=O)NCC(=O)NCCOCC(=O)N[C@H](CCCNC(=N)N)C(=O)N[C@H](CCCNC(=N)N)C(=O)N[C@H](CCCNC(=N)N)C(=O)N[C@H](CCCNC(=N)N)C(=O)N[C@H](CCCNC(=N)N)C(=O)N[C@H](CCCNC(=N)N)C(=O)N[C@H](CCCNC(=N)N)C(=O)N[C@H](CCCNC(=N)N)C(=O)N[C@H](CCCNC(=N)N)C(=O)N[C@H](CCCCNC(=O)CN1CCN(CC(=O)O)CCN(CC(=O)O)CCN(CC(=O)O)CC1)C(N)=O` [ACPP-B, Ac-y-e9-X-CRPAHLRDSG-X-r9-k(DOTA)-NH2] (Ac-[dY][dE][dE][dE][dE][dE][dE][dE][dE][dE][AEA]CRPAHLRDSG[AEA][dR][dR][dR][dR][dR][dR][dR][dR][dR][dK](DOTA)-NH2), in data set [1] (kidney and liver, ^177Lu label, 10 nmol, MI-mice, from Table 1), the tissue to tissue ratio at 5 h came out at 14.9. Further, in the data set “in vivo” (iv), the blood half-life is recorded as ~ 24 min.

As for `CC(=O)N[C@H](Cc1ccc(O)cc1)C(=O)N[C@H](CCC(=O)O)C(=O)N[C@H](CCC(=O)O)C(=O)N[C@H](CCC(=O)O)C(=O)N[C@H](CCC(=O)O)C(=O)N[C@H](CCC(=O)O)C(=O)N[C@H](CCC(=O)O)C(=O)N[C@H](CCC(=O)O)C(=O)N[C@H](CCC(=O)O)C(=O)N[C@H](CCC(=O)O)C(=O)NCCOCC(=O)N[C@@H](CS)C(=O)N[C@@H](CCCNC(=N)N)C(=O)N1CCC[C@H]1C(=O)N[C@@H](C)C(=O)N[C@@H](Cc1c[nH]cn1)C(=O)N[C@@H](CC(C)C)C(=O)N[C@@H](CCCNC(=N)N)C(=O)N[C@@H](CC(=O)O)C(=O)N[C@@H](CO)C(=O)NCC(=O)NCCOCC(=O)N[C@H](CCCNC(=N)N)C(=O)N[C@H](CCCNC(=N)N)C(=O)N[C@H](CCCNC(=N)N)C(=O)N[C@H](CCCNC(=N)N)C(=O)N[C@H](CCCNC(=N)N)C(=O)N[C@H](CCCNC(=N)N)C(=O)N[C@H](CCCNC(=N)N)C(=O)N[C@H](CCCNC(=N)N)C(=O)N[C@H](CCCNC(=N)N)C(=O)N[C@H](CCCCNC(=O)CN1CCN(CC(=O)O)CCN(CC(=O)O)CCN(CC(=O)O)CC1)C(N)=O` [^177Lu-ACPP-B, metal not drawn] (Ac-[dY][dE][dE][dE][dE][dE][dE][dE][dE][dE][AEA]CRPAHLRDSG[AEA][dR][dR][dR][dR][dR][dR][dR][dR][dR][dK](DOTA)-NH2), the tissue uptake at 5 h in data set [1] (setting [2]) was determined as 0.08 ± 0.03 %ID/g; in data set [1] (setting [3]) it was 0.01 ± 0.01 %ID/g; in data set [1] (setting [4]), 0.43 ± 0.28 %ID/g; in data set [1] (setting [5]) it was 0.75 ± 0.15 %ID/g; in data set [1] (setting [6]) it was 0.11 ± 0.02 %ID/g; in data set [1] (setting [7]) it was 100 ± 13 %ID/g. The tissue uptake at 5 h in data set [1] (setting [8]) is 6.76 ± 0.91 %ID/g; in data set [1] (setting [9]), 0.38 ± 0.09 %ID/g; in data set [1] (setting [10]), 0.09 ± 0.07 %ID/g; in data set [1] (setting [11]), 0.77 ± 0.13 %ID/g; in data set [1] (setting [12]) it was 1.92 ± 0.73 %ID/g. Also, the “K1 of 2-phase exponential decay fit of blood kinetics” value in the data set “in vivo” worked out at 1.99 min⁻¹. Further, the “K2 of 2-phase exponential decay fit of blood kinetics” value in “in vivo” is 27.1 min⁻¹. The tissue uptake amounted to 2.61 %ID/g in the data set “in vivo” (iv, Span1 of 2-phase exponential decay fit of blood kinetics) and 7.35 %ID/g in the data set “in vivo” (iv, Span2 of 2-phase exponential decay fit of blood kinetics).

With `CC(C)C[C@H](N)C(=O)N[C@@H](CCCNC(=N)N)C(=O)N[C@@H](CC(=O)O)C(=O)N[C@@H](CO)C(=O)NCC(=O)NCCOCC(=O)N[C@H](CCCNC(=N)N)C(=O)N[C@H](CCCNC(=N)N)C(=O)N[C@H](CCCNC(=N)N)C(=O)N[C@H](CCCNC(=N)N)C(=O)N[C@H](CCCNC(=N)N)C(=O)N[C@H](CCCNC(=N)N)C(=O)N[C@H](CCCNC(=N)N)C(=O)N[C@H](CCCNC(=N)N)C(=O)N[C@H](CCCNC(=N)N)C(=O)N[C@H](CCCCNC(=O)CN1CCN(CC(=O)O)CCN(CC(=O)O)CCN(CC(=O)O)CC1)C(N)=O` [^177Lu-CPP-B, metal not drawn] (H-LRDSG[AEA][dR][dR][dR][dR][dR][dR][dR][dR][dR][dK](DOTA)-NH2), the tissue uptake at 5 h in data set [1] (setting [2]) was 0.14 ± 0.06 %ID/g; in data set [1] (setting [3]), 0.01 ± 0.01 %ID/g; in data set [1] (setting [4]) it was 0.16 ± 0.07 %ID/g; in data set [1] (setting [5]) it was 1.69 ± 0.5 %ID/g; in data set [1] (setting [6]), 0.32 ± 0.11 %ID/g; in data set [1] (setting [7]), 10.1 ± 1.61 %ID/g. Moreover, the tissue uptake at 5 h was 33.2 ± 3.98 %ID/g in data set [1] (setting [8]); 0.67 ± 0.25 %ID/g in data set [1] (setting [9]); 0.1 ± 0.02 %ID/g in data set [1] (setting [10]); 4.17 ± 0.82 %ID/g in data set [1] (setting [11]); 2.61 ± 0.25 %ID/g in data set [1] (setting [12]).
